Laboratory results published in publication PMC4977651, “Molecular features of biguanides required for targeting of mitochondrial respiratory complex I and activation of AMP-kinase” (BMC Biology, 2016).
pIC50: −log10 of the molar value. Where “and” joins values, the source holds several entries; their conditions need not be identical. Equal entries are not always repeated.

Columns and labels:
[1] = molecular target: mouse heart mitochondrial membranes (complex I) (Mus musculus, UniProt P03888+P03899+Q91WD5+Q9DC70); assay: NADH:O2 oxidoreduction by mouse heart mitochondrial membranes; type: biochemical
mouse heart mitochondrial membranes (complex I), sequence (P03899 whole entry): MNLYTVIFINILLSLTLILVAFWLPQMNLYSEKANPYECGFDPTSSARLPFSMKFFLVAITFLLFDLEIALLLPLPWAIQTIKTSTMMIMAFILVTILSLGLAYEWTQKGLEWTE
mouse heart mitochondrial membranes (complex I), sequence (P03888 whole entry): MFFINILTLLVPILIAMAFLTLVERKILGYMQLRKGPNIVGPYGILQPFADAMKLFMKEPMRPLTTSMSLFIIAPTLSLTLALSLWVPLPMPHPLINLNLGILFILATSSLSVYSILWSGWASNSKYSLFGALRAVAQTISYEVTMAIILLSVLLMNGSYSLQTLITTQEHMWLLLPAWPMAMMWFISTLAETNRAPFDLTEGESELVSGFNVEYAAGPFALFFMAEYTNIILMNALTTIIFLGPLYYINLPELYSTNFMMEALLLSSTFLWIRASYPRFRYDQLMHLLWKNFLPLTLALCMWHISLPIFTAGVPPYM
mouse heart mitochondrial membranes (complex I), sequence (Q9DC70 36-224): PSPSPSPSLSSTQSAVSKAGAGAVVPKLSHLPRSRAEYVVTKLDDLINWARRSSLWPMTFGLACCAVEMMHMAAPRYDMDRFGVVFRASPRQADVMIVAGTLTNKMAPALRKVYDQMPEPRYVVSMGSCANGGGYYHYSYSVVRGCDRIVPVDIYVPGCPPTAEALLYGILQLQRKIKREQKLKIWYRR
mouse heart mitochondrial membranes (complex I), sequence (Q91WD5 34-463): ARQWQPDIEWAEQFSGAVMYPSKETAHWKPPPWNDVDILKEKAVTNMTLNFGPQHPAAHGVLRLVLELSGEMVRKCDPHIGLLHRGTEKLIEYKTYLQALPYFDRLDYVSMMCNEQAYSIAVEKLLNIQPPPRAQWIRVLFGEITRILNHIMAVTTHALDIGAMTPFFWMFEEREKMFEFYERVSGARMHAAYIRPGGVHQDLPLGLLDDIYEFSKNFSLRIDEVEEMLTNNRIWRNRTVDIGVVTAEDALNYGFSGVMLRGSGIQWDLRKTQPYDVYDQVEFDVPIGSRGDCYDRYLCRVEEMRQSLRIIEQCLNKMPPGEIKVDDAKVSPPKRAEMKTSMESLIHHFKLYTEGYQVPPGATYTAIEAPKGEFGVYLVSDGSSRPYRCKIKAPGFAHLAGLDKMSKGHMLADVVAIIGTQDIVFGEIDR
Protocol: (§1) Complex I and mitochondrial membranes were prepared from Bos taurus (bovine) heart. Intact mitochondria were isolated from rat liver and mouse heart and liver. Membranes were prepared from mouse heart mitochondria by 5 s bursts of sonication at 4 °C and collected by centrifugation (75,000 × g, 1 h).
Assays were performed at 32 °C in a SpectraMax 96-well plate reader. NADH:decylubiquinone oxidoreduction by complex I at 0.5 μg mL^−1 was measured in 20 mM Tris-HCl (pH 7.2), 0.15 % soy bean asolectin (Avanti Polar Lipids), and 0.15 % 3-((3-cholamidopropyl)dimethylammonium)-1-propanesulfonate (CHAPS, Merck Chemicals Ltd), with 200 μM decylubiquinone and 200 μM NADH, and monitored using ε340–380(NADH) = 4.81 mM^−1 cm^−1 [23]. Catalysis was initiated by addition of NADH and maximal rates determined by linear regression. NADH:O2 oxidoreduction by membranes was measured similarly but using 5 μg mL^−1 membranes in 10 mM Tris-HCl (pH 7.4) and 250 mM sucrose using 200 μM NADH and supplemented with 0.15 mM horse heart cytochrome c (Sigma-Aldrich Ltd.). Succinate:O2 oxidoreduction was measured using 40 μg mL^−1 membranes in 5 mM succinate in 10 mM Tris-HCl (pH 7.4) as described previously. Control experiments included NaCl (to match the ionic strength) or DMSO, as appropriate.
Experimental values are reported as mean averages ± standard deviation (SD) of technical replicates for large sample sizes and mean averages ± standard error of the mean (SEM) of technical replicates for small sample sizes. Data were analyzed by the unpaired two-tailed Student’s t test. IC50 values were determined using the standard dose-effect relationship (activity (%) = 100 × IC50 / (IC50 + [inhibitor]^m) with the Hill Slope (m) set to unity for purified complex I) and are reported with 95 % confidence intervals.

MDBK cells = assay: Rotenone-sensitive oxygen consumption rate in intact MDBK cells; type: cell-based, Bos taurus; design: key to rotenone sensitive OCR after 40 mins of biguanide exposure / rotenone sensitive OCR after 40 mins of biguanide exposure, average: % of OCR recorded immediately before biguanide addition
Protocol: 143B (CRL-8303 from ATCC), HepG2 (85011430 from The Health Protection Agency), and MDBK (CCL-22 from ATCC) cells were grown on Dulbecco’s modified Eagle’s medium (DMEM) supplemented with 10 % fetal bovine serum (FBS, Thermo Fisher Scientific) at 37 °C in 5 % CO2. All cells were confirmed as negative for mycoplasma.
Oxygen consumption rates (OCRs) were measured using a Seahorse XF96 extracellular flux analyzer at 37 °C. For intact cell measurements, 1.4 × 10^4 143B, HepG2, or MDBK cells were plated (per well) in DMEM containing 10 % FBS into Seahorse Bioscience Inc. XF96 plates and incubated for ~12 h at 37 °C in 5 % CO2. Then, the medium was exchanged for assay buffer containing DMEM, 4.5 g L^−1 glucose, 1 mM pyruvate, 32 mM NaCl, 2 mM GlutaMAX, 15 mg L^−1 phenol red, and 20 mM HEPES (pH 7.4 at 37 °C) and the cells placed in a CO2-free incubator at 37 °C for 30 min. Basal oxygen consumption rates were established before the addition of biguanides at one-tenth of their IC50 (IC50/10), and followed for ~ 6 h before the addition of rotenone (2 μM).
Rotenone-sensitive OCRs were calculated by subtracting the rotenone-insensitive rates (determined at the end of the experiment). OCRs were normalized by dividing by the OCR recorded immediately prior to the addition of biguanide. For rate of uptake calculations, the OCRs at time points after biguanide addition were divided by the OCRs at the same time points in control experiments. Data from wells with failed port injections were excluded from the analyses. The respiratory control ratio (RCR) values (state III versus state IV respiration) were ~11 and ~6 for permeabilized MDBK and 143B cells, respectively.

mouse heart mitochondria = assay: ADP-stimulated rotenone-sensitive OCR in isolated mouse heart mitochondria; type: biochemical; design: rotenone sensitive OCR after ADP stimulation, individual replicates / rotenone sensitive OCR after ADP stimulation, average / rotenone sensitive OCR after 15 mins, average: unit not given here
Protocol: as §1
Isolated mitochondria were monitored using a Seahorse XF96 extracellular flux analyzer at 32 °C. Mouse heart mitochondria, and mouse and rat liver mitochondria were plated into XF96 plates at 4 and 16–20 μg per well, respectively, in 220 mM mannitol, 70 mM sucrose, 10 mM KH2PO4, 5 mM MgCl2, 1 mM EGTA, 0.2 % fatty acid-free BSA, and 2 mM HEPES (pH 7.4 at 37 °C) with 10 mM glutamate and 10 mM malate and adhered by centrifugation (2000 × g, 20 min, 4 °C). The medium was supplemented with a further 5 mM glutamate and 5 mM malate and the mitochondria incubated for 15 min. Then two baseline readings were taken before the biguanides were added at IC50/5. […] Rotenone (2 μM) was added at the end of the experiment. Data from wells with failed port injections were excluded from the analyses. The RCR values (state III versus state IV respiration) were 3.4, 4.8, and 4.6 for mouse heart, rat liver, and mouse liver, respectively.

mouse liver mitochondria = assay: ADP-stimulated rotenone-sensitive OCR in isolated mouse liver mitochondria; type: biochemical; design: rotenone sensitive OCR after ADP stimulation, individual replicates / rotenone sensitive OCR after ADP stimulation, average: unit not given here
Protocol: as §1
Isolated mitochondria were monitored using a Seahorse XF96 extracellular flux analyzer at 32 °C. Mouse heart mitochondria, and mouse and rat liver mitochondria were plated into XF96 plates at 4 and 16–20 μg per well, respectively, in 220 mM mannitol, 70 mM sucrose, 10 mM KH2PO4, 5 mM MgCl2, 1 mM EGTA, 0.2 % fatty acid-free BSA, and 2 mM HEPES (pH 7.4 at 37 °C) with 10 mM glutamate and 10 mM malate and adhered by centrifugation (2000 × g, 20 min, 4 °C). The medium was supplemented with a further 5 mM glutamate and 5 mM malate and the mitochondria incubated for 15 min. Then two baseline readings were taken before the biguanides were added at IC50/5. Biguanides were allowed to accumulate for 15–20 min before respiration was […] by the addition of 4 mM ADP. Rotenone (2 μM) was added at the end of the experiment. Data from wells with failed port injections were excluded from the analyses. The RCR values (state III versus state IV respiration) were 3.4, 4.8, and 4.6 for mouse heart, rat liver, and mouse liver, respectively.

[2] = MDBK intact cells, average of replicates, biguanide at IC50/10
[3] = MDBK intact cells, individual replicates, biguanide at IC50/10

NC(N)=NC(N)=NCCc1ccc(Cl)cc1 [compound 1, 2-[2-(4-chlorophenyl)ethyl]-1-(diaminomethylidene)guanidine]
HillSlope (best fit value) ([1]; Prism variable slope fit): -0.8311 | pIC50 ([1]; Prism variable slope fit, Bottom 0, Top 100, read-out: IC50 (best fit value)): 3.33 | remaining activity at 130 µM ([1]; inhibitor 0.13 mM, read-out: average % (rate, % of no-inhibitor control)): 75.2% | remaining activity at 250 µM ([1]; inhibitor 0.25 mM, read-out: average % (rate, % of no-inhibitor control)): 62.1% | remaining activity at 500 µM ([1]; inhibitor 0.50 mM, read-out: average % (rate, % of no-inhibitor control)): 47.6% | remaining activity at 1000 µM ([1]; inhibitor 1.00 mM, read-out: average % (rate, % of no-inhibitor control)): 36.7% | remaining activity at 2500 µM ([1]; inhibitor 2.50 mM, read-out: average % (rate, % of no-inhibitor control)): 19.7% | remaining activity at 5000 µM ([1]; inhibitor 5.00 mM, read-out: average % (rate, % of no-inhibitor control)): 9.86% | remaining activity at 10000 µM ([1]; inhibitor 10.00 mM, read-out: average % (rate, % of no-inhibitor control)): 8.63% | LogIC50 (best fit value) ([1]; log of IC50 in mM, Prism variable slope fit): -0.3323 | rotenone sensitive OCR after 6 hours of biguanide exposure, % control, average (MDBK cells; MDBK cells, biguanide at IC50/10): 64.04 % control | rotenone sensitive OCR after 6 hours of biguanide exposure, average (MDBK cells; MDBK cells, biguanide at IC50/10, OCR normalized to OCR immediately prior to biguanide addition): 64.24 | maximal rate of accumulation (estimated matrix concentration) (MDBK cells; MDBK cells, biguanide at IC50/10 in the extracellular medium (phenformin 34 μM; compound 1 37 μM), estimated from OCR inhibition): 1 µM/min | rotenone sensitive OCR after 40 mins of biguanide exposure, % control, average (MDBK cells; [2]): 96.88 % control | rotenone sensitive OCR after 40 mins of biguanide exposure, average (MDBK cells; [2]): 98.58 | rotenone sensitive OCR after 40 mins of biguanide exposure (MDBK cells; [3]): 98.09 and 97.70 and 99.35 (3×) and 96.88 and 99.34 | rotenone sensitive OCR after 40 mins of biguanide exposure, % control (MDBK cells; [3]): 96.40 % control and 96.02 % control and 97.64 % control (3×) and 95.21 % control and 97.63 % control | rotenone sensitive OCR after ADP stimulation, % of control, average (mouse heart mitochondria; average of replicates): 42.96 % of control | rotenone sensitive OCR after ADP stimulation, average (mouse heart mitochondria; average of replicates): 104.05 | rotenone sensitive OCR after ADP stimulation, % of control, individual replicates (mouse heart mitochondria; replicate 1-11): 59.58 % of control and 56.94 % of control and 47.63 % of control and 43.78 % of control and 42.25 % of control and 48.37 % of control and 28.35 % of control and 16.80 % of control | rotenone sensitive OCR after ADP stimulation, individual replicates (mouse heart mitochondria; replicate 1-12): 144.30 and 137.90 and 115.35 and 106.02 and 102.33 and 117.15 and 68.67 and 40.69 | rotenone sensitive OCR after ADP stimulation, % of control, average (mouse liver mitochondria; average of replicates): 43.22 % of control | rotenone sensitive OCR after ADP stimulation, average (mouse liver mitochondria; average of replicates): 14.99 | rotenone sensitive OCR after ADP stimulation, % of control, individual replicates (mouse liver mitochondria; replicate 1-5): 45.82 % of control and 40.66 % of control and 43.16 % of control | rotenone sensitive OCR after ADP stimulation, individual replicates (mouse liver mitochondria; replicate 1-5): 15.90 and 14.11 and 14.98
